Activity calls are given as the source filed them.
Tests used:
[1] = target: T1, Microphthalmia-associated transcription factor (Homo sapiens, UniProt O75030); assay: reducers of TRPM1 reporter luminescence, concentration series – cell-based, SK-MEL-5, cherry-picked, set 3, MITF inhibitor project, dose response (AID 493073); format: functional;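 further: SK-MEL-5 melanoma cells with luciferase driven by the MITF target TRPM1 promoter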
T1 sequence (O75030 whole entry): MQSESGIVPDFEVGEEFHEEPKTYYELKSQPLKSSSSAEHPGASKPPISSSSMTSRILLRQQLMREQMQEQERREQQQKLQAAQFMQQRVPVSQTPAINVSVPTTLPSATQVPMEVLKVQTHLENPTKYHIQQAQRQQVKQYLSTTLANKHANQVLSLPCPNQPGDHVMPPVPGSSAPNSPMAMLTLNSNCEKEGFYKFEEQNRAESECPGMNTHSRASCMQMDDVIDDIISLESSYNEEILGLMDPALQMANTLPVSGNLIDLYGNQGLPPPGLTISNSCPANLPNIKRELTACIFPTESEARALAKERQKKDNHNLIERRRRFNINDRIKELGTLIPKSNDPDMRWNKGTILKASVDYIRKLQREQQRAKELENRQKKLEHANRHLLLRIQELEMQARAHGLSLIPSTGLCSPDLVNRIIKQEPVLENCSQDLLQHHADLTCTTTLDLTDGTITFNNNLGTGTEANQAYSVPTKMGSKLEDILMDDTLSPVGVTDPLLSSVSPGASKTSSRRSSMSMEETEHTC

[2] = target: Dual specificity tyrosine-phosphorylation-regulated kinase 1A (Rattus norvegicus, UniProt Q63470); format: biochemical, Homo sapiens
[3] = test system: HEK293; assay: inhibition of NOD1-driven NF-kB reporter – cell-based, luminescence, uHTS, primary screen (AID 1578); format: functional; details: Homo sapiens
[4] = test system: HEK293; assay: cells; format: functional, cell-based; details: Homo sapiens
[5] = target: T2, Nucleotide-binding oligomerization domain-containing protein 1 (Homo sapiens, UniProt Q9Y239); assay: blockers of NOD1 pathway activity – revised, SAR follow-up (AID 2333); format: functional
T2 sequence (Q9Y239 whole entry): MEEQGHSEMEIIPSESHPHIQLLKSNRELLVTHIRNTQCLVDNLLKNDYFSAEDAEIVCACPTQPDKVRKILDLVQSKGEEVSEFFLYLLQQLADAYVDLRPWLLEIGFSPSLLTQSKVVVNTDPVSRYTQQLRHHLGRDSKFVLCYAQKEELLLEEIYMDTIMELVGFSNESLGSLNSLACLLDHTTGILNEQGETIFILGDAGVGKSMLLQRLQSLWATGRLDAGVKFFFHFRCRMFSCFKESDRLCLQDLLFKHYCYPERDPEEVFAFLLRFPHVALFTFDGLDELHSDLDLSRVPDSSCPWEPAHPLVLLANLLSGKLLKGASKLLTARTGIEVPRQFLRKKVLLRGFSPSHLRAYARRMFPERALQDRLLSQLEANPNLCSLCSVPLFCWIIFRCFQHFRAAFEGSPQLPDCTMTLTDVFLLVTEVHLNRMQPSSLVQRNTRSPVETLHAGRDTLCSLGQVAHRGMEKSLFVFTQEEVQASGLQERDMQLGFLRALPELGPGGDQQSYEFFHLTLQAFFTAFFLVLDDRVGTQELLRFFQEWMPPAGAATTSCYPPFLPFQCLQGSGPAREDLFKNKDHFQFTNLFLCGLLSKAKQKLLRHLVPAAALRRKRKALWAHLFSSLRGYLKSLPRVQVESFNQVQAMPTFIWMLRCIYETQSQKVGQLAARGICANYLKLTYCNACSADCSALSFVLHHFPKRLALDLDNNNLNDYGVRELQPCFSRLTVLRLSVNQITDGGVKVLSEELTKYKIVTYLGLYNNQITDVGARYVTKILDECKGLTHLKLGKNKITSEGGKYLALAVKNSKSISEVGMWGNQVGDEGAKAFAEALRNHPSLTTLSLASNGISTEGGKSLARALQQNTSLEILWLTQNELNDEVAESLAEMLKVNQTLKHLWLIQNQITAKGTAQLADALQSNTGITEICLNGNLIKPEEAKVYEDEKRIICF

[6] = test system: HEK293; assay: NOD2 signaling inhibitors in MDP-stimulated cells, cell-based, uHTS, luminescence (AID 2001); format: functional; details: Homo sapiens
[7] = test system: HEK293; assay: cells; details: Homo sapiens
[8] = test system: HEK293; assay: cells; format: functional, cell-based; details: Homo sapiens; remark: listed apart in the source
[9] = target: Tumor necrosis factor (Homo sapiens, UniProt P01375); assay: analog potency on TNFa NF-kB signaling – cell-based, revised, SAR follow-up (AID 2337); format: functional
[10] = target: Beta-galactosidase (Escherichia coli, UniProt Q8VNN2); assay: PubChem AID 485352; format: functional
[11] = target: T3, Type-1 angiotensin II receptor (Homo sapiens, UniProt P30556); assay: antagonism of angiotensin II type 1 receptor – cell-based, uHTS hits, selectivity assay for APJ receptor antagonist project, dose response (AID 463214); format: functional;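 further: antagonist potency against angiotensin II stimulated AT1 response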
T3 sequence (P30556 whole entry): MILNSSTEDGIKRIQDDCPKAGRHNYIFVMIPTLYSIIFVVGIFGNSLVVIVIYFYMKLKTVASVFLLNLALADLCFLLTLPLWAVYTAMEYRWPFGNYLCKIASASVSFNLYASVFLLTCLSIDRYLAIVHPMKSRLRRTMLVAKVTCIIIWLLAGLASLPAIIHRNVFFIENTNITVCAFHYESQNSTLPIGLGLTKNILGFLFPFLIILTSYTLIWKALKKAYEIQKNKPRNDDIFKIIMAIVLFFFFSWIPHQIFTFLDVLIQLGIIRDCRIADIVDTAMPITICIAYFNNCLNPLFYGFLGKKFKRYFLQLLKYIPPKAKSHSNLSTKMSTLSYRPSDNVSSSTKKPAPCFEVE

[12] = test system: Streptococcus sp. 'group A'; assay: Streptococcus pyogenes SK(-)GAS viability under kanamycin – luminescence, BacTiterGlo, confirmation, counter-screen for streptokinase expression inhibitor project, dose response (AID 1900); format: functional, organism-based
[13] = target: Nonstructural protein 1 (Influenza A virus, UniProt Q194T2); format: functional, Influenza A virus (A/California/07/2009(H1N1))
[14] = target: T4, Streptokinase A (Streptococcus pyogenes serotype M1, UniProt P10520); assay: viability-normalized secreted streptokinase activity reduction – plasminogen activation absorbance, OD405, dose response (AID 1914); format: functional, Streptococcus pyogenes M1 GAS;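 further: secreted streptokinase activity via plasminogen activation per viability signal from cell pellet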
T4 sequence (P10520 whole entry): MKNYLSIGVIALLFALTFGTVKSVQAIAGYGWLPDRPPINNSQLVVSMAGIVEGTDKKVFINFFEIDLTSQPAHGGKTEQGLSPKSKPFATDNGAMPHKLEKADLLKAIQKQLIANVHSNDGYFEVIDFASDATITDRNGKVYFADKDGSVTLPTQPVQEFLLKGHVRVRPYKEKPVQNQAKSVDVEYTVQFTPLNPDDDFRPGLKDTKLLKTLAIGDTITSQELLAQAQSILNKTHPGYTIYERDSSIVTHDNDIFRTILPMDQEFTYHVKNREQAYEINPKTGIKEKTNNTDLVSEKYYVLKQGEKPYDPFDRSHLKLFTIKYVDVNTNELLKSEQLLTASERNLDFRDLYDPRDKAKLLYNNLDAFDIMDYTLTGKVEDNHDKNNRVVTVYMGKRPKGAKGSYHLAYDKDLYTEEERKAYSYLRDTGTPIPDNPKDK

[15] = test system: Streptococcus; assay: GAS UMAA2166 growth inhibition – luminescence, BacTiterGlo, counter-screen for streptokinase expression inhibitor project, dose response (AID 1915); format: functional, organism-based;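 further: potency for reduction of bacterial viability or growth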

Sequence of Beta-galactosidase (Q8VNN2 whole entry): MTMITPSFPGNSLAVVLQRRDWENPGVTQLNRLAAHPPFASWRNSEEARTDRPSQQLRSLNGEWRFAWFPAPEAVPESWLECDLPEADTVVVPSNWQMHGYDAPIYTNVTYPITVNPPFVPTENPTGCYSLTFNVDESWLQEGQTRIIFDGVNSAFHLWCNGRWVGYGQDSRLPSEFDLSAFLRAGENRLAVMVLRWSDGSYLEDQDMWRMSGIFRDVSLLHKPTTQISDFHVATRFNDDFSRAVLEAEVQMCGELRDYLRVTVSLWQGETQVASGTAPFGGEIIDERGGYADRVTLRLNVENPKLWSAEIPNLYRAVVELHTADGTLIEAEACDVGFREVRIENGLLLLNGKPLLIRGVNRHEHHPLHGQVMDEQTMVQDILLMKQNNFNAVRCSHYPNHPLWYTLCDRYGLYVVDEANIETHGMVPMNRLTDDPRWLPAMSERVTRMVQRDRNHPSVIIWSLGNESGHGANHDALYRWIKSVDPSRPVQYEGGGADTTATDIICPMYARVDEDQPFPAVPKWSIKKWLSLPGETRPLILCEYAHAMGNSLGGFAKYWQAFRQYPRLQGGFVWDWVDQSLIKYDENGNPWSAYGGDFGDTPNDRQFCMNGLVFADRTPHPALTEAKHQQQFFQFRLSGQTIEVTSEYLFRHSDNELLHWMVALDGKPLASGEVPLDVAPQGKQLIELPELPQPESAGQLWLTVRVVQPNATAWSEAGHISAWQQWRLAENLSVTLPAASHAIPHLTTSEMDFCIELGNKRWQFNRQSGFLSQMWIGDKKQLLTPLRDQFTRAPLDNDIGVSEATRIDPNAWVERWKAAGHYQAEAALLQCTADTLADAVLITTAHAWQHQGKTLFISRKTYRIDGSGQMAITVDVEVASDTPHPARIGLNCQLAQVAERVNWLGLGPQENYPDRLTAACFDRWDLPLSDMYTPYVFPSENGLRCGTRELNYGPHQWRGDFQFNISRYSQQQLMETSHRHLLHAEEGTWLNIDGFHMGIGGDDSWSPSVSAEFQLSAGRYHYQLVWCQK
Sequence of Nonstructural protein 1 (Q194T2 whole entry): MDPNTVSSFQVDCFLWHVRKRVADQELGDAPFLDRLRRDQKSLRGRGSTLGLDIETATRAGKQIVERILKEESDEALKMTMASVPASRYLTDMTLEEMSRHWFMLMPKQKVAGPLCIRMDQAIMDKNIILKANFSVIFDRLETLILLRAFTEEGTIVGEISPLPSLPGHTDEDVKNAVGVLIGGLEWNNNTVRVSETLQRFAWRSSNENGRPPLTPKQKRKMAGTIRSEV
Sequence of Tumor necrosis factor (P01375 whole entry): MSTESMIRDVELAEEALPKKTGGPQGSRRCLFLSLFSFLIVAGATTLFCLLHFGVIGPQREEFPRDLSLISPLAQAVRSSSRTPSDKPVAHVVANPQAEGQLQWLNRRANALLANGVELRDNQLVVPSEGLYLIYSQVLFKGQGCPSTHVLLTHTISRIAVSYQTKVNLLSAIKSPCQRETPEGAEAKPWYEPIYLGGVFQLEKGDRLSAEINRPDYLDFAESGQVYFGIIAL

With `CCOC(=O)CSC1=NC(=O)/C(=C/c2ccc(OC)cc2)S1` the AC50 [1] was 3.98 µM (active) and the AC50 [2] was 0.395 µM (active).
In the case of `Cc1ccc(C(=O)N2CCN(c3ccc(F)cc3)CC2)cc1S(=O)(=O)N1CCCCC1`, the EC50 [3] was 5.48 µM (active), the IC50 [4] was > 20 µM (inactive) and the IC50 [5] was 5.07 µM (active). The IC50 [6] was 12.9 µM (inactive), the IC50 [7] was > 20 µM (inactive) and the IC50 [8] was 11.2 µM (active). For the same compound, the IC50 [9] was 9.82 µM (active).
For `CC1(C)CC2(CC(c3ccccc3F)c3cc(Cl)c(O)cc3O2)NC(=S)N1` (configuration not stated), the EC50 [10] was > 40 µM (inactive) and the IC50 [11] was > 40 µM (not active).
In the case of `CCSc1nnc(NC(=O)c2ccccn2)s1`, the EC50 [12] was 6.34 µM (active), the EC50 [10] was > 40 µM (inactive) and the IC50 [11] was 16.8 µM (active). For the same compound, the IC50 [13] was 10.6 µM (active), the EC50 [14] was > 150 µM (not active) and the EC50 [15] was 15.3 µM (active).
